Results as given in ChEMBL document CHEMBL3885861, “Open TG-GATES”.

Organism: Rattus norvegicus
Assay: Open TG-GATES - Regimen: Daily Repeat
Format: toxicity, organism-based, Sprague-Dawley
Set-up: regimen Daily Repeat, gender Male, age 6 weeks
Conditions: in vivo, po, 300 mg/kg, route gavage, dose level High; for APTT / Bas / Eos / Fbg / Hb / Ht / Lym / MCH / MCHC / MCV / Mono / Neu / PT / Plat / RBC / Ret / WBC: tissue Blood; for KIDNEY_L / KIDNEY_R / KIDNEY_TOTAL: tissue Kidney; for LIVER: tissue Liver; for A/G / ALP / ALT / AST / BUN / CRE / Ca / Cl / DBIL / GLC / IP / K / LDH / Na / PL / RALB / TBIL / TC / TG / TP / gamma-GTP: tissue Plasma

`C[C@]12CCC(=O)C=C1CC[C@@H]1[C@@H]2CC[C@@]2(C)[C@H]1CC[C@]2(C)O` [METHYLTESTOSTERONE] gave a TERMINAL_BW (72 h, time 3 day) of 233.2 g, an APTT (72 h, time 3 day) of 15.7 s and a Bas (72 h, time 3 day) of 0%. It also gave an Eos (72 h, time 3 day) of 1%, a Fbg (72 h, time 3 day) of 295.4 mg/dL and a Hb (72 h, time 3 day) of 13.8 g/dL. It also gave a Ht (72 h, time 3 day) of 39.9%, a Lym (72 h, time 3 day) of 74.8% and an MCH (72 h, time 3 day) of 21.8 pg. For the same compound, the MCHC (72 h, time 3 day) was 34.6%, the MCV (72 h, time 3 day) was 63.2 fL and the Mono (72 h, time 3 day) was 2.8%. For the same compound, the Neu (72 h, time 3 day) was 21%, the PT (72 h, time 3 day) was 13.4 s and the Plat (72 h, time 3 day) was 115.4 x10_4/uL. For the same compound, the RBC (72 h, time 3 day) was 630.6 x10_4/ul, the Ret (72 h, time 3 day) was 6.1% and the WBC (72 h, time 3 day) was 71.4 x10_2/uL. The KIDNEY_L (72 h, time 3 day) was 1.1 g, the KIDNEY_R (72 h, time 3 day) was 1.1 g and the KIDNEY_TOTAL (72 h, time 3 day) was 2.2 g. The LIVER (72 h, time 3 day) was 12.3 g, the A/G (72 h, time 3 day) was 0.9 and the ALP (72 h, time 3 day) was 1988.4 IU/L. It also gave an ALT (72 h, time 3 day) of 52.4 IU/L, an AST (72 h, time 3 day) of 72 IU/L and a BUN (72 h, time 3 day) of 14.4 mg/dL. It also gave a CRE (72 h, time 3 day) of 0.2 mg/dL, a Ca (72 h, time 3 day) of 11 mg/dL and a Cl (72 h, time 3 day) of 106.2 meq/L. For the same compound, the DBIL (72 h, time 3 day) was 0.028 mg/dL, the GLC (72 h, time 3 day) was 179 mg/dL and the IP (72 h, time 3 day) was 8.4 mg/dL. The K (72 h, time 3 day) was 4.2 meq/L, the LDH (72 h, time 3 day) was 129.6 IU/L and the Na (72 h, time 3 day) was 143.2 meq/L. The PL (72 h, time 3 day) was 110.4 mg/dL, the RALB (72 h, time 3 day) was 2.8 g/dL and the TBIL (72 h, time 3 day) was 0.024 mg/dL. It also gave a TC (72 h, time 3 day) of 37.8 mg/dL, a TG (72 h, time 3 day) of 189 mg/dL and a TP (72 h, time 3 day) of 5.8 g/dL. It also gave a gamma-GTP (72 h, time 3 day) of 1.2 IU/L, a TERMINAL_BW ([…], time 7 day) of 255 g and a TERMINAL_BW ([…], time 14 day) of 299.6 g. For the same compound, the TERMINAL_BW ([…], time 28 day) was 358.4 g, the APTT ([…], time 7 day) was 19.5 s and the Bas ([…], time 7 day) was 0%. It also gave an Eos ([…], time 7 day) of 0.2%, a Fbg ([…], time 7 day) of 345.8 mg/dL and a Hb ([…], time 7 day) of 14 g/dL. For the same compound, the Ht ([…], time 7 day) was 40.4%, the Lym ([…], time 7 day) was 80% and the MCH ([…], time 7 day) was 21.6 pg. For the same compound, the MCHC ([…], time 7 day) was 34.6%, the MCV ([…], time 7 day) was 62.2 fL and the Mono ([…], time 7 day) was 3.2%. For the same compound, the Neu ([…], time 7 day) was 15.4%, the PT ([…], time 7 day) was 13.3 s and the Plat ([…], time 7 day) was 121 x10_4/uL. It also gave an RBC ([…], time 7 day) of 650.2 x10_4/ul, a Ret ([…], time 7 day) of 5.3% and a WBC ([…], time 7 day) of 65.9 x10_2/uL. For the same compound, the APTT ([…], time 14 day) was 22.8 s, the Bas ([…], time 14 day) was 0% and the Eos ([…], time 14 day) was 0%. For the same compound, the Fbg ([…], time 14 day) was 327.8 mg/dL, the Hb ([…], time 14 day) was 15.3 g/dL and the Ht ([…], time 14 day) was 43.7%. For the same compound, the Lym ([…], time 14 day) was 70.4%, the MCH ([…], time 14 day) was 20.5 pg and the MCHC ([…], time 14 day) was 34.9%. The MCV ([…], time 14 day) was 58.8 fL, the Mono ([…], time 14 day) was 3.4% and the Neu ([…], time 14 day) was 25.2%. For the same compound, the PT ([…], time 14 day) was 13.5 s, the Plat ([…], time 14 day) was 118.5 x10_4/uL and the RBC ([…], time 14 day) was 744.4 x10_4/ul. The Ret ([…], time 14 day) was 3.2%, the WBC ([…], time 14 day) was 93.6 x10_2/uL and the APTT ([…], time 28 day) was 19.9 s. For the same compound, the Bas ([…], time 28 day) was 0%, the Eos ([…], time 28 day) was 1% and the Fbg ([…], time 28 day) was 325.4 mg/dL. It also gave a Hb ([…], time 28 day) of 15.8 g/dL, a Ht ([…], time 28 day) of 44.3% and a Lym ([…], time 28 day) of 77.8%. The MCH ([…], time 28 day) was 19.3 pg, the MCHC ([…], time 28 day) was 35.7% and the MCV ([…], time 28 day) was 54.1 fL. It also gave a Mono ([…], time 28 day) of 3.2%, a Neu ([…], time 28 day) of 17.4% and a PT ([…], time 28 day) of 13.6 s. The Plat ([…], time 28 day) was 111.9 x10_4/uL, the RBC ([…], time 28 day) was 819 x10_4/ul and the Ret ([…], time 28 day) was 2.6%. For the same compound, the WBC ([…], time 28 day) was 81.2 x10_2/uL, the KIDNEY_L ([…], time 7 day) was 1.2 g and the KIDNEY_R ([…], time 7 day) was 1.2 g. For the same compound, the KIDNEY_TOTAL ([…], time 7 day) was 2.4 g, the KIDNEY_L ([…], time 14 day) was 1.4 g and the KIDNEY_R ([…], time 14 day) was 1.4 g. For the same compound, the KIDNEY_TOTAL ([…], time 14 day) was 2.8 g, the KIDNEY_L ([…], time 28 day) was 1.8 g and the KIDNEY_R ([…], time 28 day) was 1.8 g. It also gave a KIDNEY_TOTAL ([…], time 28 day) of 3.7 g, an LIVER ([…], time 7 day) of 13.5 g and an LIVER ([…], time 14 day) of 15.3 g. The LIVER ([…], time 28 day) was 18.6 g, the A/G ([…], time 7 day) was 0.9 and the ALP ([…], time 7 day) was 1693.8 IU/L. It also gave an ALT ([…], time 7 day) of 44.4 IU/L, an AST ([…], time 7 day) of 63.4 IU/L and a BUN ([…], time 7 day) of 13.8 mg/dL. It also gave a CRE ([…], time 7 day) of 0.2 mg/dL, a Ca ([…], time 7 day) of 10.9 mg/dL and a Cl ([…], time 7 day) of 105 meq/L. For the same compound, the DBIL ([…], time 7 day) was 0.028 mg/dL, the GLC ([…], time 7 day) was 182.4 mg/dL and the IP ([…], time 7 day) was 7.6 mg/dL. For the same compound, the K ([…], time 7 day) was 3.8 meq/L, the LDH ([…], time 7 day) was 89.4 IU/L and the Na ([…], time 7 day) was 143.4 meq/L. It also gave a PL ([…], time 7 day) of 117.2 mg/dL, an RALB ([…], time 7 day) of 2.9 g/dL and a TBIL ([…], time 7 day) of 0.03 mg/dL. It also gave a TC ([…], time 7 day) of 38.6 mg/dL, a TG ([…], time 7 day) of 228.8 mg/dL and a TP ([…], time 7 day) of 6.2 g/dL. The gamma-GTP ([…], time 7 day) was 1 IU/L, the A/G ([…], time 14 day) was 0.8 and the ALP ([…], time 14 day) was 1180 IU/L. For the same compound, the ALT ([…], time 14 day) was 62 IU/L, the AST ([…], time 14 day) was 69.8 IU/L and the BUN ([…], time 14 day) was 13 mg/dL. The CRE ([…], time 14 day) was 0.2 mg/dL, the Ca ([…], time 14 day) was 10.4 mg/dL and the Cl ([…], time 14 day) was 105 meq/L. The DBIL ([…], time 14 day) was 0.022 mg/dL, the GLC ([…], time 14 day) was 172.6 mg/dL and the IP ([…], time 14 day) was 7.8 mg/dL. The K ([…], time 14 day) was 3.9 meq/L, the LDH ([…], time 14 day) was 128.8 IU/L and the Na ([…], time 14 day) was 143 meq/L. The PL ([…], time 14 day) was 139.2 mg/dL, the RALB ([…], time 14 day) was 2.8 g/dL and the TBIL ([…], time 14 day) was 0.03 mg/dL. The TC ([…], time 14 day) was 44 mg/dL, the TG ([…], time 14 day) was 191.2 mg/dL and the TP ([…], time 14 day) was 6.2 g/dL. The gamma-GTP ([…], time 14 day) was 1.8 IU/L, the A/G ([…], time 28 day) was 0.8 and the ALP ([…], time 28 day) was 1072 IU/L. The ALT ([…], time 28 day) was 49.8 IU/L, the AST ([…], time 28 day) was 60.2 IU/L and the BUN ([…], time 28 day) was 12.4 mg/dL. For the same compound, the CRE ([…], time 28 day) was 0.2 mg/dL, the Ca ([…], time 28 day) was 10.9 mg/dL and the Cl ([…], time 28 day) was 101.6 meq/L. The DBIL ([…], time 28 day) was 0.026 mg/dL, the GLC ([…], time 28 day) was 172 mg/dL and the IP ([…], time 28 day) was 6.5 mg/dL. The K ([…], time 28 day) was 3.4 meq/L, the LDH ([…], time 28 day) was 100 IU/L and the Na ([…], time 28 day) was 144.2 meq/L. It also gave a PL ([…], time 28 day) of 118.6 mg/dL, an RALB ([…], time 28 day) of 2.9 g/dL and a TBIL ([…], time 28 day) of 0.032 mg/dL. For the same compound, the TC ([…], time 28 day) was 36.2 mg/dL, the TG ([…], time 28 day) was 202.2 mg/dL and the TP ([…], time 28 day) was 6.3 g/dL. It also gave a gamma-GTP ([…], time 28 day) of 2.6 IU/L.
